Assays:
Type in all cases: in vivo, cynomolgus monkeys
[1] = Single-dose pharmacokinetics/tolerability study of v17597 and v21252; settings: all below LLOQ
Experimental: General tolerability was assessed with clinical observations, body weight, food consumption, and clinical pathology (hematology and clinical chemistry).
Serum concentrations of total antibody were analyzed using an Electrochemiluminescence assay with Meso Scale Discovery platform (ECL/MSD) with anti-pertuzumab antibody as the capture agent and anti-trastuzumab sulfo-TAG as the detection agent.
Serum samples were precipitated with acetonitrile/methanol (50:50, v/v) and supernatants were analyzed. The liquid chromatography system used was a reverse phase column with a gradient flow consisting of water/acetic acid (100/0.05, v/v) and acetonitrile.
Non-compartmental analysis of the serum sample bioanalytical results was used to derive PK parameters (maximum serum concentration [Cmax], terminal half-life [T1/2], clearance [CL] and apparent volume of distribution [Vss]).

[2] = Non-GLP repeat-dose toxicity study of v21252; settings: after repeat administration of v21252 9 or 12 mg/kg; all below limit of quantitation except three animals
Experimental: (§1) All animals were evaluated for changes in clinical signs, food consumption, body weight, blood pressure, ECGs, respiration rates (visual), clinical pathology (hematology, clinical chemistry, coagulation, urinalysis), organ weights, and macroscopic/microscopic examination of tissues.

[3] = GLP toxicity study of v21252
Experimental: as §1

CCC(C)[C@@H]([C@@H](CC(=O)N1CCC[C@H]1[C@H](OC)[C@@H](C)C(=O)NS(=O)(=O)c1ccc(N)cc1)OC)N(C)C(=O)[C@@H](NC(=O)[C@H](C(C)C)N(C)C)C(C)C (stereo in doubt) [Compound 9, (S)—N-((3R,4S,5R)-1-((S)-2-((1R,2R)-3-((4-aminophenyl)sulfonamido)-1-methoxy-2-methyl-3-oxopropyl)pyrrolidin-1-yl)-3-methoxy-5-methyl-1-oxoheptan-4-yl)-2-((S)-2-(dimethylamino)-3-methylbutanamido)-N,3-dimethylbutanamide]
toxin (Compound 9) serum concentration ([1]; after single dose of v17597 (3, 6 or 9 mg/kg)): < 5.00 ng/mL | toxin (Compound 9) serum concentration ([1]; after single dose of v21252 (9 or 12 mg/kg)): < 5.00 ng/mL | payload (Compound 9) serum concentration [2]: < 0.500 ng/mL | toxin (Compound 9) serum concentration ([3]; after repeat administrations of v21252, most concentrations below limit of quantitation): < 0.500 ng/mL | AUC(0-t) ([3]; male, cynomolgus monkey, serum, iv, 18 mg/kg): 125 ng·h/mL

— US12357701B2, “Anti-HER2 biparatopic antibody-drug conjugates and methods of use” (Zymeworks BC Inc., priority 2018, dated 2025)
